Laboratory results as given in US6956034B2, “Oxazin(ethyl)one compounds used as fungicides” (BASF Aktiengesellschaft, priority 2001, dated 2005).

How the values were obtained:
[1] = tested on: mildew of wheat (Erysiphe [syn. Blumeria] graminis forma specialis tritici); assay: Protective activity against mildew of wheat; type: in vivo; details: wheat seedlings, sprayed 24 h before inoculation, 7 days, untreated 85
Experimental: The active compounds were used as aqueous preparations of active compounds which contained the active compound in a concentration of 250 ppm, 63 ppm, 16 ppm and 4 ppm, respectively. The aqueous preparation of active compound was prepared by diluting a stock solution of 10% by weight of active compound, 63% by weight of cyclohexanone and 27% by weight of emulsifier (20 parts by weight of Nekanil® LN (Lutensol® AP6, wetting agent having emulsifying and dispersing action based on ethoxylated alkylphenols) and 10 parts by weight of Wettol® EM (nonionic emulsifier based on ethoxylated castor oil)) with water in the amount required for the desired concentration. The first fully developed leaves of the wheat seedlings of the variety “Kanzler” which had been grown in pots were sprayed to runoff point with an aqueous preparation of active compound prepared from a stock solution containing 10% of active compound, […]. 24 hours after the spray coating had dried on, the plants were inoculated with an aqueous spore suspension of mildew of wheat (Erysiphe [syn. Blumeria] graminis forma specialis. tritici). The plants were then cultivated in a greenhouse at 20-24° C. and 60-90% relative atmospheric humidity. After 7 days the extent of the mildew development was determined visually in % infection of the leaves.

[2] = tested on: mildew of cucumbers (Sphaerotheca fuliginea); assay: Protective activity against mildew of cucumbers; type: in vivo; details: cucumber seedlings; for percentage of infection of leaves at the prescribed concentration of active compound: sprayed 20 h before inoculation, 7 days, untreated 90
Experimental: The active compounds were used as aqueous preparations of active compounds which contained the active compound in a concentration of 250 ppm, 63 ppm, 16 ppm and 4 ppm, respectively. The aqueous preparation of active compound was prepared by diluting a stock solution of 10% by weight of active compound, 63% by weight of cyclohexanone and 27% by weight of emulsifier (20 parts by weight of Nekanil® LN (Lutensol® AP6, wetting agent having emulsifying and dispersing action based on ethoxylated alkylphenols) and 10 parts by weight of Wettol® EM (nonionic emulsifier based on ethoxylated castor oil)) with water in the amount required for the desired concentration.
Leaves of cucumber seedlings of the cultivar “Chinesische Schlange” which had been grown in pots were, at the cotyledon stage, sprayed to runoff point with an aqueous preparation of active compound. 20 hours after the spray coating had dried on, the plants were inoculated with an aqueous spore suspension of mildew of cucumbers (Sphaerotheca fuliginea). The plants were then cultivated in a greenhouse at 20-24° C. and 60-80% relative atmospheric humidity for 7 days. The extent of the mildew development was then determined visually in % infection of the cotyledon area.

| SMILES | percentage of infection of leaves at the prescribed concentration of active compound ([1]; 16 ppm) [%] | percentage of infection of leaves at the prescribed concentration of active compound ([1]; 63 ppm) [%] | percentage of infection of leaves at the prescribed concentration of active compound ([1]; 250 ppm) [%] | percentage of infection of leaves at the prescribed concentration of active compound ([2]; 16 ppm) [%] | percentage of infection of leaves at the prescribed concentration of active compound ([2]; 63 ppm) [%] | percentage of infection of leaves at the prescribed concentration of active compound ([2]; 250 ppm) [%] | infection of the cotyledon area ([2]; 4 ppm, untreated plants 90% infected) |
| --- | --- | --- | --- | --- | --- | --- | --- |
| CON=c1oc2ccc(I)cc2c(=O)n1CC1CC1 [I - A1.68] | 0 | 0 | 0 | 0 | 0 | 0 |  |
| CCCn1c(=NOC)oc2ccc(I)cc2c1=O [I - A1.4] | 0 | 0 | 0 | 0 | 0 | 0 |  |
| CCCn1c(=NOC(C)C)oc2ccc(I)cc2c1=O [I - A1.139] | 0 | 0 | 0 | 0 | 0 | 0 |  |
| CCCCn1c(=NOCC)oc2ccc(I)cc2c1=O [I - A1.24] | 0 | 0 | 0 | 0 | 0 | 0 |  |
| CCCON=c1oc2ccc(I)cc2c(=O)n1CC1CC1 [I - A1.76] | 0 | 0 | 0 | 0 | 0 | 0 |  |
| CC(C)ON=c1oc2ccc(I)cc2c(=O)n1CC1CC1 [I - A1.134] | 0 | 0 | 0 | 0 | 0 | 0 |  |
| CCCn1c(=NOC)oc2ccc(OC)cc2c1=O [I - A1.133] | 20 | 0 | 0 | 10 | 5 | 0 |  |
| CCCn1c(=NOC)oc2ccc(C)cc2c1=O [I - A1.132] |  |  |  | 10 | 10 | 0 |  |
| CCCn1c(=NOC)oc2ccc(Cl)cc2c1=O [Compound I - A1.2, O-Methyl (6-chloro-3-propyl-4H-1,3-benz[e]oxazin-4(3H)-one)-2-oxime] |  |  |  |  |  |  | no infection |
| CCCn1c(=NOCC)oc2ccc(I)cc2c1=O [I - A1.8] | 0 | 0 | 0 | 0 | 0 | 0 |  |
| CCCCn1c(=NOC)oc2ccc(I)cc2c1=O [I - A1.20] | 0 | 0 | 0 | 0 | 0 | 0 |  |
| CCCCn1c(=NOCCC)oc2ccc(I)cc2c1=O [I - A1.28] | 0 | 0 | 0 | 0 | 0 | 0 |  |
| CCCCn1c(=NOC(C)C)oc2ccc(I)cc2c1=O [I - A1.138] | 0 | 0 | 0 | 0 | 0 | 0 |  |
| CCCn1c(=NOCC2CC2)oc2ccc(I)cc2c1=O [I - A1.137] | 0 | 0 | 0 | 0 | 0 | 0 |  |
| O=c1c2cc(I)ccc2oc(=NOCC2CC2)n1CC1CC1 [I - A1.135] | 5 | 0 | 0 | 3 | 0 | 0 |  |
| CCCCn1c(=NOCC2CC2)oc2ccc(I)cc2c1=O [I - A1.136] | 0 | 0 | 0 | 0 | 0 | 0 |  |
| CCCON=c1oc2ccc(I)cc2c(=O)n1CCC [I - A1.12] | 0 | 0 | 0 | 0 | 0 | 0 |  |
| CCCn1c(=NOC)oc2ccc(Cl)cc2c1=O [I - A1.2] | 0 | 0 | 0 | 0 | 0 | 0 |  |
| CCON=c1oc2ccc(I)cc2c(=O)n1CC1CC1 [I - A1.72] | 0 | 0 | 0 | 0 | 0 | 0 |  |
